Patent publication US20250032449A1, “TREATMENT OF RHEUMATOID ARTHRITIS” (SYNACT PHARMA APS, priority 2021, published 2025)
Where two headings read alike, the source gives them in different places.

Assays:
[1] = tested on: aminotransferases (ALT or ALAT, AST); settings: known effect of MTX; cited from earlier work
[2] = tested on: experimental inflammatory arthritis; settings: oral; cited from earlier work
macrophages = settings: cited from earlier work
mouse model of arthritis = settings: WO 2020/229297; cited from earlier work
[3] = tested on: newly diagnosed subjects with severe active RA (CDAI>22); assay: Phase IIa placebo-controlled study in early RA patients starting MTX: CDAI; settings: for CDAI Baseline, group mean / CDAI Screening, group mean / CDAI Week 4, group mean / CDAI Week 2, group mean / CDAI Week 5, group mean / CDAI Difference / CDAI Difference in %: n = 31; for CDAI Baseline, group mean / CDAI Screening, group mean: before treatment; for CDAI Week 4, group mean: end of treatment; for CDAI Week 2, group mean: mid-treatment; for CDAI Week 5, group mean: one week follow-up after last dosage; for CDAI Difference / CDAI Difference in %: week 4 versus baseline
melanocytes = settings: cited from earlier work
MC1R = settings: cited from earlier work
[4] = tested on: mouse primary macrophages; settings: cited from earlier work
MC3R = settings: cited from earlier work
[5] = tested on: alanine aminotransferase/alanine transaminase (ALAT)
Source text: The study population will consist of newly diagnosed subjects with severe active RA (CDAI (Clinical disease activity score)>22) who are to start up-titration with methotrexate (MTX).
Sodium, potassium, chloride, calcium, glucose, creatinine, urea, albumin, unconjugated and total bilirubin, aspartate transaminase (AST), alanine transaminase (ALT), alkaline phosphatase (ALP), gamma-glutamyl transferase (GGT) and INR. The biochemistry blood samples will be taken at all visits. A serum β-HCG pregnancy test will be taken at screening.
Safety measures (AEs, SAEs, including laboratory abnormalities) will be registered during the whole study duration.
ALAT is commonly elevated following MTX treatment.

[6] = steady conditions, repeated dose Phase I
peritonitis = settings: oral, cited from earlier work
[7] = 50 mg AP1189 (acetate salt) group
[8] = 50 mg AP1189 (acetate salt) once daily plus MTX (10-25 mg) weekly
[9] = 50 mg AP1189 (acetate salt) once daily plus MTX weekly
[10] = 100 mg AP1189 (acetate salt) group
[11] = 100 mg AP1189 (acetate salt) once daily plus MTX (10-25 mg) weekly
[12] = 100 mg AP1189 (acetate salt) once daily plus MTX weekly
[13] = 100 mg dosage AP1189 (acetate salt), with MTX
[14] = 50 mg AP1189 once daily plus MTX weekly, 2 weeks, n 32
[15] = 50 mg AP1189 once daily plus MTX weekly, 4 weeks (end of treatment), n 33
[16] = 50 mg AP1189 once daily plus MTX weekly, 5 weeks (one week after final dosage), n 32
[17] = 100 mg AP1189 once daily plus MTX weekly, 2 weeks, n 34
[18] = 100 mg AP1189 once daily plus MTX weekly, 4 weeks (end of treatment), n 33
[19] = 100 mg AP1189 once daily plus MTX weekly, 5 weeks (one week after final dosage), n 35

## CN(Cc1cnc2nc(N)nc(N)c2n1)c1ccc(C(=O)N[C@@H](CCC(=O)O)C(=O)O)cc1 [MTX, methotrexate]
[1]
  Effect on aminotransferases (transaminases): cause an increase in aminotransferases

## (E)-N-trans-{3-[1-(2-nitrophenyl)-1H-pyrrol-2-yl]-allylidene}-aminoguanidinium acetate [AP1189]
[2]
  Macroscopic and histological parameters of joint disruption: significant reduction
macrophages
  Cytokine release: reduce cytokine release
Mouse model of arthritis
  Combined effect of AP1189 and methotrexate (MTX): synergistic effect
[3]; [7]
  CDAI Baseline, group mean: 36.1
  CDAI Screening, group mean: 35.6
[3]; [8]
  CDAI Week 4, group mean: 24.2
  CDAI Week 2, group mean: 29.9
  CDAI Week 5, group mean: 22.9
[3]; [9]
  CDAI Difference: −11.9
  CDAI Difference in %: 33%
[3]; [10]
  CDAI Baseline, group mean: 39
  CDAI Screening, group mean: 38.9
[3]; [11]
  CDAI Week 4, group mean: 23.9
  CDAI Week 2, group mean: 28.9
  CDAI Week 5, group mean: 21.3
[3]; [12]
  CDAI Difference: −15.1
  CDAI Difference in %: 39%
[3]; [13]
  Efficacy in treating rheumatoid arthritis (CDAI): a reduction in CDAI
[3]; both tested dosages, 50 mg and 100 mg, with MTX
  Effect in reducing CDAI: significant effect of AP1189 in reducing CDAI
melanocytes
  Melanogenesis: no melanogenesis was induced
MC1R
  ERK1/2 phosphorylation: cause ERK1/2 phosphorylation
  canonical cAMP generation: does not induce canonical cAMP generation
[4]
  Efferocytosis: proefferocytic effect
MC3R
  ERK1/2 phosphorylation: cause ERK1/2 phosphorylation
  canonical cAMP generation: does not induce canonical cAMP generation
[5]; [14]
  ALAT 2 weeks (share of subjects with clinical significant abnormal value): 6.3%
  ALAT CSA (Clinical significant abnormal value), number: 2
[5]; [15]
  ALAT 4 weeks (share of subjects with clinical significant abnormal value): 6.1%
  ALAT CSA (Clinical significant abnormal value), number: 2
[5]; [16]
  ALAT 5 weeks (share of subjects with clinical significant abnormal value): 6.3%
  ALAT CSA (Clinical significant abnormal value), number: 2
[5]; 50 mg dosage AP1189 (acetate salt), with MTX
  Effect on MTX-associated elevation of transaminases: did not reduce MTX-associated elevation of transaminases
[5]; [17]
  ALAT 2 weeks (share of subjects with clinical significant abnormal value): 0.0%
  ALAT CSA (Clinical significant abnormal value), number: 0
[5]; [18]
  ALAT 4 weeks (share of subjects with clinical significant abnormal value): 0.0%
  ALAT CSA (Clinical significant abnormal value), number: 0
[5]; [19]
  ALAT 5 weeks (share of subjects with clinical significant abnormal value): 0.0%
  ALAT CSA (Clinical significant abnormal value), number: 0
[5]; [13]
  Effect on MTX-associated elevation of transaminases: completely abolish the MTX-associated elevation of transaminases
[5]; dosage of 50 mg, with MTX, at 2 weeks, 4 weeks (EoT) and 5 weeks (FoV)
  ALAT change: an increase in ALAT is observed
[5]; dosage of 100 mg AP1189, with MTX
  ALAT elevation: 0.0%
[6]; 50 mg once daily
  C Max (mean +/− SD, N = 9): 180 ± 38 ng/mL
  C Trough (Mean +/− SD, N = 9): 46 ± 14 ng/mL
[6]; 100 mg once daily
  C Max (mean +/− SD, N = 9): 427 ± 76 ng/mL
  C Trough (Mean +/− SD, N = 9): 100 ± 25 ng/mL
[6]; 200 mg once daily
  C Max (mean +/− SD, N = 9): 893 ± 198 ng/mL
  C Trough (Mean +/− SD, N = 9): 186 ± 45 ng/mL
peritonitis
  Anti-inflammatory action in peritonitis: elicits anti-inflammatory actions
peritonitis; peritonitis
  Resolution phase: accelerated the resolution phase
